Patent US9713608B2, “Method for topically treating actinic keratosis on the trunk (except chest) or extremities with ingenol 3-(3,5-diethylisoxazole-4-carboxylate)” (LEO Laboratories Limited, priority 2013, dated 2017)

Assays:
[1] = tested on: actinic keratosis (AK) lesions; experiment: Phase 1 exploratory trial: treatment response of AK lesions (clinical count and Reflectance Confocal Microscopy); assay type: in vivo, human; settings: for RCM findings in lesions: overall, clinically visible AK lesions and subclinical lesions
Description: To evaluate treatment responses on AKs of the three concentrations of ingenol 3-(3,5-diethylisoxazole-4-carboxylate) gel compared to the ingenol mebutate gel as assessed by reduction in number of clinically visible selected AK lesions eight weeks after treatment.
To evaluate treatment responses on AKs of the three concentrations of ingenol 3-(3,5-diethylisoxazole-4-carboxylate) gel compared to the ingenol mebutate gel as assessed by Reflectance Confocal Microscopy (RCM) scoring of the clinically visible selected AK lesions before and eight weeks after treatment.
(§1) The trial population included 40 subjects at least 18 years of age with 12-16 clinically typical, visible, discrete, non-keratotic AK lesions (referred to as selected AK lesions) suitable for RCM within four separate 25 cm^2 (5×5 cm) selected treatment areas (STAs) on the dorsal aspects of the forearms. Each STA was to be separated by at least 5 cm from other STAs.
Whenever possible, four visible and discrete selected AK lesions are identified within each of the four STAs. However, one STA with three selected AK lesions is acceptable for a subject. The selected AK lesions are assessed by RCM. If a selected AK lesion could not be confirmed as an AK lesion by RCM, another STA with selected AK lesions has to be identified. In addition, each subject is to have one subclinical AK lesion suitable for RCM within each STA (these subclinical AKs are referred to as selected subclinical AK lesions).
Treatment efficacy is included as a secondary endpoint and assessed by change in number of clinically visible AK lesions from baseline to 8 weeks after treatment and change in RCM scores from baseline to 8 weeks after treatment.

dermal tumours = experiment: in vivo studies in mice, effects on dermal tumours; settings: compared to ingenol mebutate
Description: The exact mechanism of action of ingenol 3-(3,5-diethylisoxazole-4-carboxylate) continues to be investigated, but it is believed that ingenol 3-(3,5-diethylisoxazole-4-carboxylate) has a dual mechanism of action inducing cell death as well as stimulation of immune response.

[2] = Phase 1 exploratory trial: safety and tolerability of topical gel on forearms of subjects with actinic keratosis; assay type: in vivo, human; settings: for mean composite LSR scores, time of peak: 8-week trial period; for mean composite LSR scores at Week 8: Week 8, relative to baseline; for number of SAEs of SCC within treated areas: four SAEs in three subjects, about three times more fields treated with ingenol 3-(3,5-diethylisoxazole-4-carboxylate); for most common treatment related AEs: human, in vivo
Description: Local skin reactions (LSRs) occurs sometimes in the treated area. Often LSRs are quantified by a scale evaluating the following types of skin reactions: erythema, flaking/scaling, crusting, swelling, vasiculation/pustulation, and erosion/ulceration which are categorized into categories 0-4 depending on the severity of the reactions.
A Phase 1 exploratory trial evaluating safety and tolerability of topical administration of ingenol 3-(3,5-diethylisoxazole-4-carboxylate) gel, 0.025%, 0.05% and 0.075% compared to ingenol mebutate gel 0.05% applied on two consecutive days to four separate 25 cm^2 treatment areas on the forearms of subjects with actinic keratosis (field therapy). A single-centre, randomised, active controlled, intra-patient controlled, investigator blind trial.
It is presently believed that ingenol 3-(3,5-diethylisoxazole-4-carboxylate) has a higher efficacy and/or milder LSR profile than ingenol mebutate.
This was a phase 1, single-centre, randomised, active controlled, intra-patient controlled, investigator blinded trial with intra-individual comparisons to explore the safety and tolerability of ingenol 3-(3,5-diethylisoxazole-4-carboxylate) gel 0.025%, 0.05%, and 0.075% compared to ingenol mebutate gel 0.05% applied once daily for two consecutive days on the forearms of subjects with AK.
as §1
For each eligible subject, the four STAs are randomised to receive one of four of the investigational product (IP or IPs): • ingenol 3-(3,5-diethylisoxazole-4-carboxylate) gel 0.025% • ingenol 3-(3,5-diethylisoxazole-4-carboxylate) gel 0.05% • ingenol 3-(3,5-diethylisoxazole-4-carboxylate) gel 0.075% • Ingenol mebutate gel 0.05%
Each IP is to be applied to one of the four STAs on each subject according to random assignment on two consecutive days (Day 1 and Day 2). This ensured that all subjects are treated with the four products on both treatment days. The trial consisted of three periods, a screening period, a treatment period, and an observation and follow-up period.
Each IP is applied to one of the four STAs on each subject according to random assignment on two consecutive days (Day 1 and Day 2). The IPs are applied by a specified investigational staff member in the clinical study protocol. Subjects are instructed about post-treatment care and provided with a patient safety and study medication instruction sheet.

[3] = difficult to treat versus more easily treated anatomical regions; cited from earlier work

| Compound | change of RCM scores ([1]; baseline to 8 weeks, between the two actives) | RCM findings in lesions [1] | efficacy in eliminating dermal tumours (dermal tumours) | mean composite LSR scores, time of peak [2] | mean composite LSR scores at Week 8 [2] | incidence of AEs inside STAs ([2]; between treatments) | number of SAEs of SCC within treated areas [2] | most common treatment related AEs [2] | events of Bowen's disease inside treated area ([2]; possibly related AE, reclassified to SAE by sponsor) | local skin reactions after a given dose [3] |
| --- | --- | --- | --- | --- | --- | --- | --- | --- | --- | --- |
| CCc1noc(CC)c1C(=O)O[C@H]1C(C)=C[C@]23C(=O)[C@@H](C=C(CO)[C@@H](O)[C@]12O)[C@H]1[C@@H](C[C@H]3C)C1(C)C [ingenol 3-(3,5-diethylisoxazole-4-carboxylate)] | no difference | honeycomb pattern of lesions improved, keratosis decreased, and the thickness of stratum corneum and viable epidermis decreased | more efficacious than ingeno mebutate | peaked at Week 1 | below baseline at Week 8 | no difference | Two | pruritus, burning sensation and tenderness | one |  |
| C/C=C(/C)C(=O)O[C@H]1C(C)=C[C@]23C(=O)[C@@H](C=C(CO)[C@@H](O)[C@]12O)[C@H]1[C@@H](C[C@H]3C)C1(C)C [ingenol mebutate, reference compound] |  | honeycomb pattern of lesions improved, keratosis decreased, and the thickness of stratum corneum and viable epidermis decreased |  | peaked at Week 1 | below baseline at Week 8 |  | two | pruritus, burning sensation and tenderness |  | milder on difficult to treat anatomical regions |
